# Laboratory results published in paper PMC4738272 (Scientific Reports, 2016).
# “Also recorded” adds a separate entry of the source. Like-named read-outs stand apart in the source and are kept apart here.
# How the values were obtained:
# [1] = tested on: iPSc differentiated Cardiomyocytes; test: Cardiac beating frequency from video recordings; format: cell-based, human; details: 4-organ co-culture under flow, 48 h drug treatment, day 7, vs control; ATR 100 μM, VPA 2 mM, APAP 5 mM
# Experimental: Seven or fourteen days after the co-culture, cardiac beating frequency was quantified from video recordings of three different areas of each of the cMEA surfaces, where the cardiomyocytes culture where located. Surfaces were located in a 37 °C bath platform containing co-culture medium with 50 mM HEPES on the stage of a Zeiss Axioscope 2FS upright microscope. Beats were counted in a period of 10 s, and the average number of 3 values was obtained. Drug effect was plotted as percentage of change compared to the control conditions.
# [2] = tested on: neurons; test: Neuronal viability by morphological analysis and cell count in 4-organ system; details: 4-organ co-culture under flow, serum-free medium, 48 h drug treatment, day 7, vs control; DOX 5 μM, ATR 100 μM, VPA 2 mM, APAP 5 mM, AMAP 5 mM
# Text: (§1) The four organ in vitro systems were assembled, on day 0, by placing the corresponding surfaces cell side up in a specific chamber of the housing (liver coverslip into chamber 1, cardiac coverslips and cantilevers into chambers 2 and 4, muscle coverslips into chamber 5, and neuron coverslips into chamber 3 and they were then topped with the serum-free co-culture medium (1X Neurobasal Medium, 1X B27, 1X AB/AM, 1X Glutamax (all from Life Technologies)) before locking the system. Right after assembling, the medium was completely replaced with 4 mL of the co-culture defined serum-free medium and the systems placed on a rocking platform inside an incubator. Platforms were checked every day by inspecting for expected cell morphology inside the system and by replacing medium (1.2 mL total volume) from the two reservoirs (30% of the total volume was replaced) with fresh medium. Drug incubation was initiated on day 5 of the co-culture by addition of the drug through the reservoir closer to the liver chamber (no. 1), allowing a first contact of the drug with the liver. 20 μL of the drug stock solution (or vehicle) to achieve a working concentration in 4 mL of total volume in the platform was utilized. On day 6, after 24 hours of drug incubation, 6 μL of the drug stock solution (or vehicle) was added to the fresh medium exchange volume (1.2 mL). After 48 hour of drug incubation, on day 7, systems were disassembled to test organ functionality that same day. For mono-culture conditions, surfaces remained in a 12-well plated with 1 mL of the co-culture defined serum-free medium maintained by daily replacement of half volume.
# (§2) Seven days after the initiation of the co-culture, viability of each organ chamber, except for neurons, was evaluated through an MTT assay. […] Cell viability was measured at 570 nm in a Synergy HT plate reader and KC4 software. The results were expressed as the percentage of cell survival relative to the control (untreated or incubated with vehicle). The neuronal fraction viability was evaluated through morphological analysis throughout the co-culture experiment as the final coverslips were used for patch-clamp electrophysiology. Phase images (10X) where obtained every day of the co-culture. Neuronal viability was evaluated by cell morphology integrity and by cell count from day 1 to day 14.
# [3] = tested on: iPSc differentiated Cardiomyocytes; test: MTT viability of cardiac module in 4-organ system; details: 4-organ co-culture under flow, serum-free medium, 48 h drug treatment, day 7, vs control, DOX 5 μM, ATR 100 μM, VPA 2 mM, APAP 5 mM, AMAP 5 mM
# Text: as §1, §2
# [4] = tested on: HepG2/C3A; test: Urea quantification, liver fraction of 4-organ system; format: cell-based, human; details: 4-organ co-culture under flow, 48 h drug treatment, vs control; DOX 5 μM, ATR 100 μM, APAP 5 mM, AMAP 5 mM
# [5] = tested on: Human Skeletal Myofibers; test: MTT viability of skeletal muscle module in 4-organ system; details: 4-organ co-culture under flow, serum-free medium, 48 h drug treatment, day 7, vs control, DOX 5 μM, ATR 100 μM, VPA 2 mM, APAP 5 mM, AMAP 5 mM
# Text: as §1, §2
# [6] = tested on: Liver; design: method as in Literature; details: general toxic effects reported in the literature; ref Literature; cited from earlier work
# [7] = tested on: HepG2/C3A; test: Human Serum Albumin quantification (ELISA), liver fraction of 4-organ system; format: cell-based; details: 4-organ co-culture under flow, 48 h drug treatment, vs control; DOX 5 μM, ATR 100 μM, VPA 2 mM, APAP 5 mM, AMAP 5 mM
# Experimental: Human Serum Albumin (HSA) production from the liver fraction was tracked throughout the co-culture, by measuring the HSA concentration in the supernatant of the culture as it represents liver protein anabolism. Samples were collected from the exchanged medium (1.2 mL) and stored at −20 °C until analysis. One freeze-thaw cycle occurred before samples were analyzed following manufacturers’ instructions provided in the ELISA Starter Accessory Kit (Bethyl Laboratories Inc, Cat #: E101). Samples were diluted as necessary in sample conjugate/diluent buffer to ensure readings measured within the range of the standard curve. The standard curve was prepared by serial dilutions of human reference serum in sample conjugate/diluent buffer (0–1600 ng/ml).
# Final HSA concentrations were calculated in an excel file by first removing the average OD reading measured for blanks from average sample and standard OD readings. Concentrations of standard dilutions were plotted against average OD values measured in XY scatter plots. A standard curve was created by adding an order of 2 polynomial trendline to XY scatter plots and selecting the option to display the equation of the trendline, as well as the R^2 value, on each scatter plot (for ease of analysis HSA sigmoidal curves were split into 3 standard curves with HSA concentration ranges of 0–200 ng/ml, 200–800 ng/ml and […]). Quadratic equations were rearranged to make X (sample HSA concentration) the unknown variant. Y values (OD values) and a/b/c constants generated from trendline equations were inputted into rearranged quadratic equations per assay. HSA concentrations calculated were corrected accordingly for any differences in culture final volumes, sample dilutions during assays and cells number.
# [8] = cited from earlier work; for Toxic plasma concentration: humans
# [9] = tested on: Cardiomyocytes; design: method as in Literature; details: general toxic effects reported in the literature; ref Literature; cited from earlier work
# [10] = tested on: Muscle; design: method as in Literature; details: general toxic effects reported in the literature; ref Literature; cited from earlier work
# [11] = tested on: Neurons; design: method as in Literature; details: general toxic effects reported in the literature; ref Literature; cited from earlier work
# [12] = tested on: neurons; test: Neuron electrophysiology recording (patch clamp); format: cell-based, human; details: 4-organ co-culture under flow, 48 h drug treatment, day 7, vs control, DOX 5 μM, ATR 100 μM, APAP 5 mM
# Text: Electrophysiological properties of neuron cultures where recorded on the last day of co-culture following a previously described method. Values of firing, repetitive firing, spontaneous firing, inward sodium current, outward potassium current, action potential peak voltage and the resting membrane potential, characterized the mature functionality of neurons in the in vitro system. Drug alterations of the neuronal electrophysiology are discussed in this manuscript.
# [13] = tested on: HepG2; design: method as in PMID 19107278; details: microfluidic system, double the concentration of APAP of this manuscript; cited from earlier work
# [14] = tested on: Human Skeletal Myofibers; test: Myotube stimulated contraction (binary: contracting or not); format: cell-based; details: 4-organ co-culture under flow, 48 h drug treatment, day 7, broad-field electrical stimulation, DOX 5 μM, ATR 100 μM, VPA 2 mM, APAP 5 mM, AMAP 5 mM
# Experimental: Myotube contraction in coverslips was evaluated after the co-culture was finalized. Individual surfaces were evaluated as previously reported in the group. Drugs effects were quantify in a binary code mode, cells were or were not contracting.
compound,measurement,setting,value
CC(=O)Nc1ccc(O)cc1 [Acetaminophen],"Cardiomyocyte beating rate (beat frequency), increase",[1],27 ± 9% increase in beating frequency
same,"Neuronal cell viability, loss (cell loss by morphology/cell count)",[2],50 ± 18% loss of cell viability
same,"Cardiomyocyte viability, loss",[3],Toxicity not observed
same,"Cardiomyocyte viability, loss",[3]; listed as APAP,not significantly affected; also recorded: preserved (even improved)
same,"Urea production, increase",[4],52 ± 13%
same,"Skeletal muscle viability, loss",[5],Toxicity not observed
same,"Skeletal muscle viability, loss",[5]; listed as APAP,not significantly affected
same,"Drug effects on cell functionality, Liver, Literature",[6],Compromised
same,"Drug effects on cell viability, Liver, Literature",[6],Toxicity reported
same,"HSA (albumin) production, increase",[7],not affected
same,"Therapeutic, and safe, plasma concentration",[8]; 500–1000 mg orally three times a day,low micromolar range
same,Toxic plasma concentration,[8]; after 24 hours,less than 50 μM
same,Toxic plasma concentration,[8]; first two hours after ingestion,around 2 mM
same,"Drug effects on cell functionality, Cardiomyocytes, Literature",[9],Cardio-protective effect
same,"Drug effects on cell viability, Cardiomyocytes, Literature",[9],Cardio-protective effect
same,"Drug effects on cell functionality, Muscle, Literature",[10],Myo-protective effect
same,"Drug effects on cell viability, Muscle, Literature",[10],Myo-protective effect
same,"Drug effects on cell functionality, Neurons, Literature",[11],Toxicity not reported
same,"Drug effects on cell viability, Neurons, Literature",[11],Toxicity not reported
same,Neuronal ion currents and firing of stimulated action potentials,[12],no changes
same,Neuronal repetitive and spontaneous firing ability,[12]; AMAP 5 mM,loss and lost
same,"Neuronal electrophysiology, overall effect","[12]; VPA 2 mM, AMAP 5 mM",Electrophysiology affected
same,Reduction in HepG2 viability,[13],60%
same,Skeletal muscle loss of contractile ability (share of cultures in which contraction ceased),[14],37% loss of contractile ability
same,Skeletal muscle loss of contractile ability (share of cultures in which contraction ceased),[14]; listed as APAP,37%
